The values below come from ChEMBL document CHEMBL1201862, “PubChem BioAssay data set” (2004).

Among the test systems are A498; CCRF-CEM; COLO 205; EKVX; HCC 2998; MCF7; MDA-MB-435; MOLT-4; NCI-H522; NCI/ADR-RES; OVCAR-3; OVCAR-5; OVCAR-8; PC-3; RPMI-8226; SF-268; SN12C; SNB-19; U-251; LOX IMVI.
Common to all, as to experiment: growth of human tumour cells (NCI), 48 h

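Cells were grown in 96-well plates and exposed to each compound for 48 hours at five concentrations; endpoints were interpolated linearly between bracketing concentrations, or set to the highest concentration if not reached. The concentration for 50% growth inhibition is given as GI50.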 The source made the active and inactive calls. Cut-off read from the data, not from the text of the source: active = GI50 up to about 1.1 µM and inactive = higher. Non-standard residues stand in square brackets, D forms with d. Residues, ends and D or L forms follow the SMILES beside them. ξ: configuration not given here. *: point of attachment. ξF = NC(Cc1ccccc1)C(=O)O; Cbz = O=C(OCc1ccccc1)*

In the case of `O=C(O)c1ccc(CI)cc1`, the GI50 with A498 is 20.8 µM (inactive); with CCRF-CEM, 9.57 µM (inactive); with COLO 205, 15.4 µM (inactive); in the test on EKVX, 19.5 µM (inactive); in the test on HCC 2998, 18 µM (inactive); with MCF7, 14.3 µM (inactive). Further, the GI50 in the test with MDA-MB-435 is 17.4 µM (inactive); with MOLT-4, 15.3 µM (inactive); in the test on NCI-H522, 3.9 µM (inactive); with NCI/ADR-RES, 16.1 µM (inactive); with OVCAR-3, 11.2 µM (inactive); in the test on OVCAR-5, 18.7 µM (inactive). The GI50 was 21.9 µM (inactive) with OVCAR-8; 15.1 µM (inactive) with PC-3; 20.8 µM (inactive) in the test on RPMI-8226; 15.4 µM (inactive) in the test with SF-268; 17 µM (inactive) in the test with SN12C; 13.8 µM (inactive) with SNB-19. For the same compound, in the test with U-251, the GI50 is 7.85 µM (inactive).

On to `c1c[nH]c(CN2CCOCC2)n1`, for which the GI50 in the test with A498, with CCRF-CEM, in the test on COLO 205, in the test with EKVX, with LOX IMVI and in the test with MCF7 was > 100 µM (inactive) in each case. Further, the GI50 in the test on MDA-MB-435, with MOLT-4, with NCI-H522, in the test on NCI/ADR-RES, in the test with OVCAR-3 and in the test with OVCAR-5 was > 100 µM (inactive) in each case. Also, the GI50 with OVCAR-8, with PC-3, with RPMI-8226, in the test on SF-268, with SN12C and with SNB-19 was > 100 µM (inactive) in each case. In addition, the GI50 with U-251 was > 100 µM (inactive).

Turning to `O=C1C(Cl)=C(Oc2ccc([N+](=O)[O-])cc2)C(=O)c2c(O)ccc(O)c21`, the GI50 was > 100 µM (inactive) with A498; 2.12 µM (inactive) with CCRF-CEM; 19.9 µM (inactive) with COLO 205; > 100 µM (inactive) in the test on EKVX; > 100 µM (inactive) in the test with HCC 2998; 46.1 µM (inactive) in the test on MCF7. Also, the GI50 in the test with MDA-MB-435 is > 47.5 µM (inactive); with MOLT-4, 5.85 µM (inactive); in the test with NCI-H522 it was 19.2 µM (inactive); in the test with NCI/ADR-RES, > 100 µM (inactive); in the test on OVCAR-3, 33.6 µM (inactive); in the test on OVCAR-5 it was > 100 µM (inactive). For the same compound, the GI50 in the test on OVCAR-8 was > 100 µM (inactive); with PC-3, > 100 µM (inactive); with RPMI-8226, 21 µM (inactive); in the test with SF-268 it was > 61.8 µM (inactive); in the test on SN12C, 98.4 µM (inactive); in the test on SNB-19, > 100 µM (inactive). The GI50 with U-251 was > 100 µM (inactive).

For `CC(=O)O[C@H]1CCC2[C@@H]3CCC4Nc5oncc5C[C@]4(C)C3CC[C@@]21C` (some centres undefined), the GI50 in the test on A498 was 4.62 µM (inactive); in the test with CCRF-CEM, 3.67 µM (inactive); in the test on COLO 205, > 10 µM (inactive); in the test with HCC 2998 it was > 10 µM (inactive); in the test on LOX IMVI it was > 10 µM (inactive); with MCF7 it was 8.55 µM (inactive). Further, the GI50 with MDA-MB-435 was > 10 µM (inactive); in the test with MOLT-4 it was 3.92 µM (inactive); in the test with NCI/ADR-RES, > 10 µM (inactive); with OVCAR-3 it was 2.55 µM (inactive); in the test with OVCAR-5, > 10 µM (inactive); in the test on OVCAR-8 it was > 10 µM (inactive). Moreover, the GI50 in the test with PC-3, in the test with RPMI-8226, in the test on SF-268, in the test with SN12C, with SNB-19 and in the test on U-251 was > 10 µM (inactive) throughout.

For the compound `O=C(COc1ccc(OCC(=O)N2C(=O)CN(c3ccc(Cl)cc3)C2=S)cc1)N1C(=O)CN(c2ccc(Cl)cc2)C1=S`, the GI50 was 22.1 µM (inactive) with A498; 25.6 µM (inactive) in the test on COLO 205; 6.62 µM (inactive) in the test with EKVX; 21.7 µM (inactive) with HCC 2998; 34 µM (inactive) with MCF7; 31.2 µM (inactive) in the test on MDA-MB-435. For the same compound, the GI50 in the test with MOLT-4 was 33.7 µM (inactive); with NCI-H522 it was 26.5 µM (inactive); with NCI/ADR-RES, 28.7 µM (inactive); in the test with OVCAR-5 it was 36.1 µM (inactive); in the test on PC-3, 23.9 µM (inactive); in the test on RPMI-8226, 21.2 µM (inactive). For the same compound, the GI50 with SF-268 is 27.2 µM (inactive); with SN12C, 30.5 µM (inactive); in the test with SNB-19, 24.4 µM (inactive); in the test with U-251, 24 µM (inactive).

In the case of `Oc1c(Br)cc(/C=C/c2cccc(/C=C/c3cc(Br)c(O)c(Br)c3)n2)cc1Br`, the GI50 in the test with A498 was 8.2 µM (inactive); in the test with COLO 205, 14.6 µM (inactive); in the test with EKVX, 14.8 µM (inactive); in the test on HCC 2998, 6.5 µM (inactive); in the test with LOX IMVI, 13.7 µM (inactive); with MCF7 it was 15.5 µM (inactive). Further, the GI50 was 13.5 µM (inactive) in the test with MDA-MB-435; 3.43 µM (inactive) with MOLT-4; 21.6 µM (inactive) in the test on NCI/ADR-RES; 14.1 µM (inactive) with OVCAR-3; 17.6 µM (inactive) in the test on OVCAR-5; 13 µM (inactive) in the test on OVCAR-8. Also, the GI50 was 7.52 µM (inactive) in the test with PC-3; 11.5 µM (inactive) in the test with RPMI-8226; 15 µM (inactive) with SF-268; 9.68 µM (inactive) in the test with SN12C; 9.98 µM (inactive) in the test on SNB-19; 9.06 µM (inactive) with U-251.

For `C=C1c2nc3ccccc3n2C=C(c2ccc(Cl)cc2)N1c1ccc(OCCN2CCOCC2)cc1`, the GI50 with A498 is > 100 µM (inactive); in the test with COLO 205 it was 18.9 µM (inactive); in the test with HCC 2998, 37.9 µM (inactive); with LOX IMVI, 11 µM (inactive); in the test with MCF7 it was 10.7 µM (inactive); in the test on MDA-MB-435, 12.6 µM (inactive). The GI50 in the test on NCI/ADR-RES was 12.3 µM (inactive); in the test on OVCAR-3, 37.2 µM (inactive); in the test with OVCAR-5, > 100 µM (inactive); in the test with PC-3, 10.5 µM (inactive); in the test on RPMI-8226, 2.91 µM (inactive); in the test on SF-268, 34.7 µM (inactive). The GI50 with SN12C was > 100 µM (inactive); with SNB-19 it was > 100 µM (inactive); in the test with U-251 it was 30.5 µM (inactive).

As to `O=c1[nH]nc(Cc2ccccc2)n1N=C1CCCCC1`, the GI50 with A498 was > 100 µM (inactive); in the test with CCRF-CEM it was > 100 µM (inactive); with COLO 205, > 100 µM (inactive); with EKVX, < 0.01 µM (active); in the test on LOX IMVI, > 100 µM (inactive); with MCF7 it was > 100 µM (inactive). For the same compound, the GI50 in the test with MDA-MB-435 was > 100 µM (inactive); with MOLT-4, > 100 µM (inactive); in the test on NCI-H522, > 100 µM (inactive); in the test with NCI/ADR-RES, > 100 µM (inactive); in the test on OVCAR-3 it was > 100 µM (inactive); with OVCAR-5 it was 3.78 µM (inactive). In addition, the GI50 with OVCAR-8, in the test with PC-3, with RPMI-8226, in the test with SF-268, in the test with SN12C and with SNB-19 was > 100 µM (inactive) each time. Also, the GI50 with U-251 was > 100 µM (inactive).

In the case of `CN1C(=O)N/C(=C\c2ccc(S(=O)(=O)NN)cc2)C1=O`, the GI50 in the test with A498, with CCRF-CEM, in the test with COLO 205, with EKVX, in the test with HCC 2998 and in the test on LOX IMVI was > 100 µM (inactive) throughout. Moreover, the GI50 with MCF7, in the test on MDA-MB-435, with MOLT-4, with NCI/ADR-RES, in the test with OVCAR-3 and with OVCAR-5 was > 100 µM (inactive) in each case. Also, the GI50 in the test with OVCAR-8, with PC-3, in the test with RPMI-8226, in the test with SF-268, in the test with SN12C and in the test on SNB-19 was > 100 µM (inactive) throughout. Moreover, the GI50 in the test on U-251 is > 100 µM (inactive).

As to `CCCCNC(=S)Nc1nc(C(=O)NNC(=S)Nc2ccccc2)cs1`, the GI50 in the test with A498 was 33.1 µM (inactive); with CCRF-CEM, > 100 µM (inactive); in the test on COLO 205 it was 32.7 µM (inactive); in the test on EKVX it was > 100 µM (inactive); with HCC 2998 it was > 100 µM (inactive); in the test with MCF7, > 100 µM (inactive). Further, the GI50 in the test on MDA-MB-435 was 61 µM (inactive); in the test with MOLT-4 it was > 100 µM (inactive); in the test on NCI/ADR-RES, > 100 µM (inactive); in the test on OVCAR-3, > 100 µM (inactive); in the test with OVCAR-5, > 100 µM (inactive); with OVCAR-8 it was > 100 µM (inactive). Besides, the GI50 with PC-3 is > 100 µM (inactive); in the test with RPMI-8226, > 100 µM (inactive); in the test with SF-268 it was > 100 µM (inactive); with SN12C, > 100 µM (inactive); with SNB-19, > 100 µM (inactive); in the test on U-251, 21.1 µM (inactive).

On to `CCOC(=O)CNC(=O)C(Cc1ccccc1)NC(=O)OCc1ccccc1` (centres undefined) (Cbz-[ξF]-Gly-OEt), for which the GI50 is 53.8 µM (inactive) with A498; > 100 µM (inactive) in the test with CCRF-CEM; > 100 µM (inactive) in the test on COLO 205; > 100 µM (inactive) in the test with EKVX; > 100 µM (inactive) with HCC 2998; > 100 µM (inactive) in the test on LOX IMVI. Also, the GI50 in the test with MCF7, in the test on MDA-MB-435, in the test on MOLT-4, in the test with NCI/ADR-RES, in the test on OVCAR-3 and with OVCAR-5 was > 100 µM (inactive) in each case. Besides, the GI50 in the test with OVCAR-8, in the test with PC-3, in the test with RPMI-8226, in the test on SF-268, in the test on SN12C and with SNB-19 was > 100 µM (inactive) in each case. Moreover, the GI50 with U-251 is > 100 µM (inactive).
